Patent US10011586B2, “Heterocyclic compound, method for preparing the same, and pharmaceutical composition comprising the same” (Daewoong Pharmaceutical Co., Ltd., priority 2015, dated 2018)

What was measured:
PRS enzyme = biological target: T1, PRS enzyme (Homo sapiens, UniProt P07814); experiment: PRS enzyme activity inhibition experiment; assay type: biochemical; conditions: purified PRS protein subcloned from EPRS cDNA; [3H]proline, 37° C., 5 to 10 minutes, liquid scintillation counter; read-out: PRS IC50
T1 construct: the portion corresponding to PRS in cDNA of EPRS was subcloned; made in house
T1 sequence (P07814 1007-1512 limits assumed): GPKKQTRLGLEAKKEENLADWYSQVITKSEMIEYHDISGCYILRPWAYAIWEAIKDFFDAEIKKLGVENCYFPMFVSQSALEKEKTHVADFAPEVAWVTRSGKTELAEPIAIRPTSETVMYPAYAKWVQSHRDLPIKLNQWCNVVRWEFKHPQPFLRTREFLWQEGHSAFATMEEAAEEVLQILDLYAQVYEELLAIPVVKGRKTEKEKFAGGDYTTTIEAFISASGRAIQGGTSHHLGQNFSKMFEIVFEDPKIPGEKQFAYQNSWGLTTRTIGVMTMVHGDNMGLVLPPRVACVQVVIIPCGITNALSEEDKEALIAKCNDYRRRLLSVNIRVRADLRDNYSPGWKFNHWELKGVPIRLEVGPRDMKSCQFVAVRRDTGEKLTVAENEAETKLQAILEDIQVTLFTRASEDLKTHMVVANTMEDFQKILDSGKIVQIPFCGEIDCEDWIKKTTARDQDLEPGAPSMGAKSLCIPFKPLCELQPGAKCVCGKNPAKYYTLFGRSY
Protocol: Specifically, the portion corresponding to PRS in cDNA of EPRS was subcloned, and the obtained high-purity PRS protein was purified and used in the experiment. The compounds (1 μM) prepared in Examples were added into the reaction buffer (20 mM KPO4 (pH 7.4), 6 mM MgAc, 5 mM ATP, […] tRNA, 0.5 mM DTT, […][^3H]proline (1 mCi/mL)) and allowed to react at 37° C. for 5 to 10 minutes. The reaction was terminated with 3M paper that was in advance dried by addition of 5% TCA. The radioactivity was measured using a liquid scintillation counter.
% Inhibition and IC50 values of the respective compounds were calculated and analyzed using Microsoft Excel or Sigma Plot 8.0. In Table 1, the results are divided into A, B and C according to the range of IC50.

NCI-H460 cells = experiment: Cancer cell growth inhibition experiment (MTT assay); assay type: cell-based; conditions: Homo sapiens, lung cancer cell line, compounds 48 hours, cell viability by MTT assay
Protocol: NCl-H460 cells, lung cancer cell lines, were cultured in 5% CO2, 37° C. incubator using a flask for 75 cm^2 tissue culture. 96-well plates were used for the evaluation. These were prepared by differently applying at concentrations in the range of 6,000 to 12,000 cells/well according to the growth rate of the cell lines. The medium containing 5% FBS were dispensed in 200 μL/well and used. The medium were cultured for 24 hours. After confirming the cell status and dispensing form of a 96-well plate under a microscope, they were used for subsequent experiments. The compounds were evaluated at concentrations of 100, 30, 10, 3, 1, 0.3, 0.03, 0.01 μM. After removing the existing medium, the compounds with various concentrations were treated in an amount of 200 μL/well. The compounds-treated plates were further cultured for 48 hours, and the cell viabilities were measured by MTT assay to calculate IC50 values.
% Inhibition and IC50 values of the respective compounds were calculated and analyzed using Sigma Plot 8.0. In Table 2, the results are divided into A, B and C according to the range of IC50. The case where the derived IC50 is 3 μM or less is represented by “A”, the case where the IC50 is 3 to 10 μM is represented by “B”, and the case where the IC50 is 10 μM or higher is represented by “C”.

IC50 (PRS enzyme) [µM] | IC50 (NCI-H460 cells) [µM] | SMILES
0.1 to 0.5 | ≥ 10 | O=C(C[C@H]1NCCC[C@@H]1O)Cn1cnc2cccc(-c3ccc(C(F)(F)F)cc3)c21 [Example 54, 1-((2R,3S)-3-hydroxypiperidin-2-yl)-3-(7-(4-(trifluoromethyl)phenyl)-1H-benzo[d]imidazol-1-yl)propan-2-one]
< 0.1 | ≥ 10 | Cc1c(-c2cscn2)ccc2c1ncn2CC(=O)C[C@H]1NCCC[C@@H]1O [Example 23, 1-((2R,3S)-3-hydroxypiperidin-2-yl)-3-(4-methyl-5-(thiazol-4-yl)-1H-benzo[d]imidazol-1-yl)propan-2-one]
0.1 to 0.5 | ≤ 3 | O=C(C[C@H]1NCCC[C@@H]1O)Cn1c(CO)nc2ccc(-c3cccc(C(F)(F)F)c3)cc21 [Example 61, 1-(2-(hydroxymethyl)-6-(3-(trifluoromethyl)phenyl)-1H-benzo[d]imidazol-1-yl)-3-((2R,3S)-3-hydroxypiperidin-2-yl)propan-2-one]
< 0.1 | 3 to 10 | O=C(C[C@H]1NCCC[C@@H]1O)Cn1c(CO)nc2ccc(-c3ccccc3F)cc21 [Example 58, 1-(6-(2-fluorophenyl)-2-(hydroxymethyl)-1H-benzo[d]imidazol-1-yl)-3-((2R,3S)-3-hydroxypiperidin-2-yl)propan-2-one]
> 0.5 | ≥ 10 | Cc1c(-c2ccccc2Cl)ccc2c1ncn2CC(=O)C[C@H]1NCCC[C@@H]1O [Example 18, 1-(5-(2-chlorophenyl)-4-methyl-1H-benzo[d]imidazol-1-yl)-3-((2R,3S)-3-hydroxypiperidin-2-yl)propan-2-one]
0.1 to 0.5 | ≥ 10 | O=C(C[C@H]1NCCC[C@@H]1O)Cn1cnc2c(-c3ccccc3)cccc21 [Example 1, 1-((2R,3S)-3-hydroxypiperidin-2-yl)-3-(4-phenyl-1H-benzo[d]imidazol-1-yl)propan-2-one]
< 0.1 | 3 to 10 | O=C(C[C@H]1NCCC[C@@H]1O)Cn1cnc2ccc(-c3cc(Cl)cc(Cl)c3)cc21 [Example 31, 1-(6-(3,5-dichlorophenyl)-1H-benzo[d]imidazol-1-yl)-3-((2R,3S)-3-hydroxypiperidin-2-yl)propan-2-one]
0.1 to 0.5 | ≥ 10 | O=C(C[C@H]1NCCC[C@@H]1O)Cn1cnc2cc(-c3cccc(Cl)c3)cnc21 [Example 14, 1-(6-(3-chlorophenyl)-3H-imidazo[4,5-b]pyridin-3-yl)-3-((2R,3S)-3-hydroxypiperidin-2-yl)propan-2-one]
< 0.1 | 3 to 10 | O=C(C[C@H]1NCCC[C@@H]1O)Cn1c(CO)nc2ccc(-c3ccccc3)cc21 [Example 57, 1-(2-(hydroxymethyl)-6-phenyl-1H-benzo[d]imidazol-1-yl)-3-((2R,3S)-3-hydroxypiperidin-2-yl)propan-2-one]

Continued, compound first:

SMILES | IC50 (PRS enzyme) [µM] | IC50 (NCI-H460 cells) [µM]
Cc1c(-c2cccc(C#N)c2)ccc2c1ncn2CC(=O)C[C@H]1NCCC[C@@H]1O [Example 20, 3-(1-(3-((2R,3S)-3-hydroxypiperidin-2-yl)-2-oxopropyl)-4-methyl-1H-benzo[d]imidazol-5-yl)benzonitrile] | > 0.5 | ≥ 10
O=C(C[C@H]1NCCC[C@@H]1O)Cn1cnc2ncc(-c3cccc(Cl)c3)cc21 [Example 41, 1-(6-(3-chlorophenyl)-1H-imidazo[4,5-b]pyridin-1-yl)-3-((2R,3S)-3-hydroxypiperidin-2-yl)propan-2-one] | < 0.1 | ≥ 10
OC(C[C@H]1NCCC[C@@H]1O)Cn1cnc2ccc(-c3cccc(Cl)c3)cc21 (stereo partly drawn) [Example 63, (2R,3S)-2-(3-(6-(3-chlorophenyl)-1H-benzo[d]imidazol-1-yl)-2-hydroxypropyl)piperidin-3-ol] | 0.1 to 0.5 | ≥ 10
Cc1c(-c2ccc(Cl)cc2)ccc2c1ncn2CC(=O)C[C@H]1NCCC[C@@H]1O [Example 19, 1-(5-(4-chlorophenyl)-4-methyl-1H-benzo[d]imidazol-1-yl)-3-((2R,3S)-3-hydroxypiperidin-2-yl)propan-2-one] | 0.1 to 0.5 | ≥ 10
O=C(C[C@H]1NCCC[C@@H]1O)Cn1cnc2ccc(-c3ccc(Cl)cc3)cc21 [Example 28, 1-(6-(4-chlorophenyl)-1H-benzo[d]imidazol-1-yl)-3-((2R,3S)-3-hydroxypiperidin-2-yl)propan-2-one] | < 0.1 | 3 to 10
O=C(C[C@H]1NCCC[C@@H]1O)Cn1cnc2ccc(-c3cc[nH]n3)cc21 [Example 38, 1-(6-(1H-pyrazol-3-yl)-1H-benzo[d]imidazol-1-yl)-3-((2R,3S)-3-hydroxypiperidin-2-yl)propan-2-one] | 0.1 to 0.5 | ≥ 10
O=C(C[C@H]1NCCC[C@@H]1O)Cn1cnc2ccc(-c3cccc(C(F)(F)F)c3)cc21 [Example 29, 1-((2R,3S)-3-hydroxypiperidin-2-yl)-3-(6-(3-(trifluoromethyl)phenyl)-1H-benzo[d]imidazol-1-yl)propan-2-one] | < 0.1 | ≤ 3
O=C(C[C@H]1NCCC[C@@H]1O)Cn1cnc2cc(-c3ccccc3)ccc21 [Example 8, 1-((2R,3S)-3-hydroxypiperidin-2-yl)-3-(5-phenyl-1H-benzo[d]imidazol-1-yl)propan-2-one] | > 0.5 | ≥ 10
N#Cc1cc(Cl)cc(-c2ccc3ncn(CC(=O)C[C@H]4NCCC[C@@H]4O)c3c2)c1 [Example 36, 3-chloro-5-(1-(3-((2R,3S)-3-hydroxypiperidin-2-yl)-2-oxopropyl)-1H-benzo[d]imidazol-6-yl)benzonitrile] | < 0.1 | 3 to 10
O=C(C[C@H]1NCCC[C@@H]1O)Cn1c(CO)nc2ccc(-c3cccc(F)c3)cc21 [Example 59, 1-(6-(3-fluorophenyl)-2-(hydroxymethyl)-1H-benzo[d]imidazol-1-yl)-3-((2R,3S)-3-hydroxypiperidin-2-yl)propan-2-one] | < 0.1 | ≤ 3
Cc1c(-c2cccc(Cl)c2)ccc2c1ncn2CC(=O)C[C@H]1NCCC[C@@H]1O [Example 17, 1-(5-(3-chlorophenyl)-4-methyl-1H-benzo[d]imidazol-1-yl)-3-((2R,3S)-3-hydroxypiperidin-2-yl)propan-2-one] | 0.1 to 0.5 | ≥ 10
O=C(C[C@H]1NCCC[C@@H]1O)Cn1cnc2ccc(-c3ccc(F)c(Cl)c3)cc21 [Example 33, 1-(6-(3-chloro-4-fluorophenyl)-1H-benzo[d]imidazol-1-yl)-3-((2R,3S)-3-hydroxypiperidin-2-yl)propan-2-one] | < 0.1 | 3 to 10
O=C(C[C@H]1NCCC[C@@H]1O)Cn1cnc2ccc(-c3ccc(=O)[nH]c3)cc21 [Example 40, 5-(1-(3-((2R,3S)-3-hydroxypiperidin-2-yl)-2-oxopropyl)-1H-benzo[d]imidazol-6-yl)pyridin-2(1H)-one] | > 0.5 | ≥ 10
O=C(C[C@H]1NCCC[C@@H]1O)Cn1cnc2ccc(-c3cccc(Cl)c3)cc21 [Example 27, 1-(6-(3-chlorophenyl)-1H-benzo[d]imidazol-1-yl)-3-((2R,3S)-3-hydroxypiperidin-2-yl)propan-2-one] | < 0.1 | ≤ 3
O=C(C[C@H]1NCCC[C@@H]1O)Cn1cnc2ccc(-c3cscn3)cc21 [Example 39, 1-((2R,3S)-3-hydroxypiperidin-2-yl)-3-(6-(thiazol-4-yl)-1H-benzo[d]imidazol-1-yl)propan-2-one] | 0.1 to 0.5 | ≥ 10
O=C(C[C@H]1NCCC[C@@H]1O)Cn1cnc2cccc(-c3cccc(F)c3)c21 [Example 49, 1-(7-(3-fluorophenyl)-1H-benzo[d]imidazol-1-yl)-3-((2R,3S)-3-hydroxypiperidin-2-yl)propan-2-one] | < 0.1 | ≤ 3
